Data: US20240109918A1, “HETEROCYCLIC COMPOUNDS AND USES THEREOF” (Kumquat Biosciences Inc., priority 2022, published 2024)

Columns and labels:
[1] = target: T1, KRASG12D (Homo sapiens, UniProt P01116, G12D); test: Bio-Biochem-PPI-HTRF Ras-SOS1 interaction assay (KRAS G12D); format: biochemical; conditions: 5 nM
T1 construct: made in house; host or cells: E. coli BL21 (DE3)
Summary of the method: (§1)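 HTRF readout (ex 337 nm; em 620 and 665 nm) after ≥~10 min incubation; IC50 fitted from 665/620 ratio. GST-K-Ras wt or G12D plus anti-GST-Eu(K), His-hSOS1 plus anti-6His-XL665; duplicate dilutions, 10 μM top.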

[2] = target: T2, KRASwt (Homo sapiens, UniProt P01116); test: Bio-Biochem-PPI-HTRF Ras-SOS1 interaction assay (KRAS wt); format: biochemical; conditions: 5 nM
T2 construct: made in house; host or cells: E. coli BL21 (DE3)
Summary of the method: as §1

T1 sequence (P01116 1-188 isoform P01116-2 G12D): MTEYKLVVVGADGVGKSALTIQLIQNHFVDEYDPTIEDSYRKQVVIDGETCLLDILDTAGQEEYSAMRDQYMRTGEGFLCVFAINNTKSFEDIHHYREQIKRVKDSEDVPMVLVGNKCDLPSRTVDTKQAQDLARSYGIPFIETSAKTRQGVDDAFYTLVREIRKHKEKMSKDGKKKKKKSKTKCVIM
T2 sequence (P01116 1-188 isoform P01116-2): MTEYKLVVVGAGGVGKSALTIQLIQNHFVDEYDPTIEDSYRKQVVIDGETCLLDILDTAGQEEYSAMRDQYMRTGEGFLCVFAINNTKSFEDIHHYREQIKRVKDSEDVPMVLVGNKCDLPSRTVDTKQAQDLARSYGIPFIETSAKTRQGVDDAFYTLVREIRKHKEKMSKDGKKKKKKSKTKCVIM

SMILES | IC50 [1] [µM] | IC50 [2] [µM]
N#Cc1c(N)sc2c(F)ccc(-c3c(Cl)cc4c(N5CCCCC6(CN(C(=O)C7(F)CC7)C6)C5)nc(OC[C@@]56CCCN5C[C@H](F)C6)nc4c3F)c12 [compound 253, 2-amino-4-(6-chloro-8-fluoro-4-(2-(1-fluorocyclopropane-1-carbonyl)-2,6-diazaspiro[3.6]decan-6-yl)-2-(((2R,7aS)-2-fluorotetrahydro-1H-pyrrolizin-7a(5H)-yl)methoxy)quinazolin-7-yl)-7-fluorobenzo[b]thiophene-3-carbonitrile] | < 5 | < 5
N#Cc1c(N)sc2c(F)ccc(-c3c(Cl)cc4c(N5CCC6(CN(C(=O)C7CC7(F)F)C6)C5)nc(OC[C@@]56CCCN5C[C@H](F)C6)nc4c3F)c12 (stereo partly drawn) [compound 143, 2-amino-4-(6-chloro-4-(2-(2,2-difluorocyclopropane-1-carbonyl)-2,6-diazaspiro[3.4]octan-6-yl)-8-fluoro-2-(((2R,7aS)-2-fluorotetrahydro-1H-pyrrolizin-7a(5H)-yl)methoxy)quinazolin-7-yl)-7-fluorobenzo[b]thiophene-3-carbonitrile] | < 5 | < 5
CC(C)C(=O)N1CC2(CCCCN(c3nc(OC[C@@]45CCCN4C[C@H](F)C5)nc4c(F)c(-c5ccc(F)c6sc(N)c(C#N)c56)c(Cl)cc34)C2)C1 [compound 197, 2-amino-4-(6-chloro-8-fluoro-2-(((2R,7aS)-2-fluorotetrahydro-1H-pyrrolizin-7a(5H)-yl)methoxy)-4-(2-isobutyryl-2,6-diazaspiro[3.6]decan-6-yl)quinazolin-7-yl)-7-fluorobenzo[b]thiophene-3-carbonitrile] | < 5 | < 5
N#Cc1c(N)sc2c(F)ccc(-c3c(Cl)cc4c(N5CCCCC6(CN(C(=O)C7CC7(F)F)C6)C5)nc(OC[C@@]56CCCN5C[C@H](F)C6)nc4c3F)c12 (stereo partly drawn) [compound 154, 2-amino-4-(6-chloro-4-(2-(2,2-difluorocyclopropane-1-carbonyl)-2,6-diazaspiro[3.6]decan-6-yl)-8-fluoro-2-(((2R,7aS)-2-fluorotetrahydro-1H-pyrrolizin-7a(5H)-yl)methoxy)quinazolin-7-yl)-7-fluorobenzo[b]thiophene-3-carbonitrile] | < 5 | < 5
N#Cc1c(N)sc2c(F)ccc(-c3c(Cl)cc4c(N5CCCCC6(CN(C=O)C6)C5)nc(OC[C@@]56CCCN5C[C@H](F)C6)nc4c3F)c12 [compound 271, 2-amino-4-(6-chloro-8-fluoro-2-(((2R,7aS)-2-fluorotetrahydro-1H-pyrrolizin-7a(5H)-yl)methoxy)-4-(2-formyl-2,6-diazaspiro[3.6]decan-6-yl)quinazolin-7-yl)-7-fluorobenzo[b]thiophene-3-carbonitrile] | < 5 | < 5
CC1(C)CN(c2nc(OC[C@@]34CCCN3C[C@H](F)C4)nc3c(F)c(-c4ccc(F)c5sc(N)nc45)c(Cl)cc23)CC2(CN(C#N)C2)O1 [compound 180, 8-(7-(2-amino-7-fluorobenzo[d]thiazol-4-yl)-6-chloro-8-fluoro-2-(((2R,7aS)-2-fluorotetrahydro-1H-pyrrolizin-7a(5H)-yl)methoxy)quinazolin-4-yl)-6,6-dimethyl-5-oxa-2,8-diazaspiro[3.5] nonane-2-carbonitrile] | ≥ 5 | < 5

Now from value to compound:

IC50 [1] [µM] | IC50 [2] [µM] | SMILES
< 5 | < 5 | N#Cc1c(N)sc2c(F)ccc(-c3c(Cl)cc4c(N5CCCCC6(CN(C(=O)[C@H]7C[C@@H]7F)C6)C5)nc(OC[C@@]56CCCN5C[C@H](F)C6)nc4c3F)c12 [compound 284, 2-amino-4-(6-chloro-8-fluoro-4-(2-((1R,2S)-2-fluorocyclopropane-1-carbonyl)-2,6-diazaspiro[3.6]decan-6-yl)-2-(((2R,7aS)-2-fluorotetrahydro-1H-pyrrolizin-7a(5H)-yl)methoxy)quinazolin-7-yl)-7-fluorobenzo[b]thiophene-3-carbonitrile]
< 5 | < 5 | Nc1nc2c(-c3c(Cl)cc4c(N5CCC6(CC5)CN(C(=O)c5nc[nH]n5)C6)nc(OC[C@@]56CCCN5C[C@H](F)C6)nc4c3F)ccc(F)c2s1 [compound 248, (7-(7-(2-amino-7-fluorobenzo[d]thiazol-4-yl)-6-chloro-8-fluoro-2-(((2R,7aS)-2-fluorotetrahydro-1H-pyrrolizin-7a(5H)-yl)methoxy)quinazolin-4-yl)-2,7-diazaspiro[3.5]nonan-2-yl) (1H-1,2,4-triazol-3-yl)methanone]
< 5 | < 5 | N#Cc1c(N)sc2c(F)ccc(-c3c(Cl)cc4c(N5CCC(F)(F)CC6(CN(C(=O)C78CC(F)(C7)C8)C6)C5)nc(OC[C@@]56CCCN5C[C@H](F)C6)nc4c3F)c12 [compound 229, 2-amino-4-(6-chloro-4-(9,9-difluoro-2-(3-fluorobicyclo[1.1.1]pentane-1-carbonyl)-2,6-diazaspiro[3.6]decan-6-yl)-8-fluoro-2-(((2R,7aS)-2-fluorotetrahydro-1H-pyrrolizin-7a(5H)-yl)methoxy)quinazolin-7-yl)-7-fluorobenzo[b]thiophene-3-carbonitrile]
< 5 | < 5 | N#Cc1c(N)sc2c(F)ccc(-c3c(Cl)cc4c(N5CCCCC6(CN(C(=O)C78COCC7C8)C6)C5)nc(OC[C@@]56CCCN5C[C@H](F)C6)nc4c3F)c12 (stereo partly drawn) [compound 333, 4-(4-(2-(3-oxabicyclo[3.1.0]hexane-1-carbonyl)-2,6-diazaspiro [3.6]decan-6-yl)-6-chloro-8-fluoro-2-(((2R,7aS)-2-fluorotetrahydro-1H-pyrrolizin-7a(5H)-yl)methoxy)quinazolin-7-yl)-2-amino-7-fluorobenzo[b]thiophene-3-carbonitrile]
< 5 | < 5 | N#Cc1c(N)sc2c(F)ccc(-c3c(Cl)cc4c(N5CCCCC6(CNC6)C5)nc(OC[C@@]56CCCN5C[C@H](F)C6)nc4c3F)c12 [compound 149, 2-amino-4-(6-chloro-8-fluoro-2-(((2R,7aS)-2-fluorotetrahydro-1H-pyrrolizin-7a(5H)-yl)methoxy)-4-(2,6-diazaspiro[3.6]decan-6-yl)quinazolin-7-yl)-7-fluorobenzo[b]thiophene-3-carbonitrile]
< 5 | < 5 | N#Cc1c(N)sc2c(F)ccc(-c3c(F)c4nc(OC[C@@]56CCCN5C[C@H](F)C6)nc(N5CCCCC6(CNC6)C5)c4c(=O)n3C3CC3)c12 [compound 198, 2-amino-4-(6-cyclopropyl-8-fluoro-2-(((2R,7aS)-2-fluorotetrahydro-1H-pyrrolizin-7a(5H)-yl)methoxy)-5-oxo-4-(2,6-diazaspiro[3.6]decan-6-yl)-5,6-dihydropyrido[4,3-d]pyrimidin-7-yl)-7-fluorobenzo[b]thiophene-3-carbonitrile]
< 5 | < 5 | Nc1nc2c(-c3c(Cl)cc4c(N5CCNC6(CNC6)C5)nc(OC[C@@]56CCCN5C[C@H](F)C6)nc4c3F)ccc(F)c2s1 [compound 116, 4-(6-chloro-8-fluoro-2-(((2R,7aS)-2-fluorotetrahydro-1H-pyrrolizin-7a(5H)-yl)methoxy)-4-(2,5,8-triazaspiro[3.5]nonan-8-yl)quinazolin-7-yl)-7-fluorobenzo[d]thiazol-2-amine]
